Laboratory results from article PMC9636034 (Current Research in Food Science, 2022).

Molecular target: α-glucosidase from yeast (Saccharomyces cerevisiae, UniProt P53341)
Assay: Inhibition assay against α-glucosidase from yeast
Format: biochemical

Chain of α-glucosidase from yeast (P53341 whole entry): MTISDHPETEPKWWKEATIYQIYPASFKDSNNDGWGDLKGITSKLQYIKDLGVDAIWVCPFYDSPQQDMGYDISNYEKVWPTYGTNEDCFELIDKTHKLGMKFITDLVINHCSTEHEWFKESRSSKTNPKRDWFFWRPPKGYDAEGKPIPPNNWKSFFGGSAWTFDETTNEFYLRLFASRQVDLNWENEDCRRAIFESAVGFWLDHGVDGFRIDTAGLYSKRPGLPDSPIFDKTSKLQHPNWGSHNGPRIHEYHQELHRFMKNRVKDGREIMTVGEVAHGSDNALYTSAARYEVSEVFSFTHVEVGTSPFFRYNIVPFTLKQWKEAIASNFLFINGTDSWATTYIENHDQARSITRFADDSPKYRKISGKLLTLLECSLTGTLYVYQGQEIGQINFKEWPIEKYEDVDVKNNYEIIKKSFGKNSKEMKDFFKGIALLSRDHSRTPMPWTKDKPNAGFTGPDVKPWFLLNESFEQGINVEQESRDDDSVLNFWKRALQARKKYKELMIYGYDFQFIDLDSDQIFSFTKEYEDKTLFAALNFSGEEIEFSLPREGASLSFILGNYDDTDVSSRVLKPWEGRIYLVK

| SMILES | IC50 |
| --- | --- |
| CC1=C(C)C(C)(O)OC1=O (centres unmarked) [Compound 3, 2-methyl-2-hydroxy-3,4-dimethyl-5-oxo-2,5-dihydrofuran] | > 250 µM |
| CC(=O)[C@@H]1COC(=O)[C@H]1C [Compound 2, (3S, 4S)-4-acetyl-3-methyldihydrofuran-2 (3H)-one] | 193 ± 13.1 µM |
